By IC50 is commonly meant the concentration at which inhibition is half-maximal.

In this assay the target is T1, human apurinic/apyrimidinic endonuclease 1 (APE1) (Homo sapiens, UniProt P27695).
T1 construct: His; made in house
Nature of the assay: APE1 inhibition assay. The class given is biochemical. The following applies: read-out: Inhibition of APE1 catalytic activity IC50. The method in brief: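 His-tagged APE1 (0.05 nM) preincubated with compound 10 min at 30 °C in MOPS pH 7.2 buffer with 7.5 mM MnCl2 and 10% DMSO, then 200 nM 5′-32P-labelled abasic (THF) duplex added for 10 min. Incision products resolved on denaturing gel, phosphorimaged; IC50 from %I versus log concentration.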

T1 sequence (P27695 whole entry): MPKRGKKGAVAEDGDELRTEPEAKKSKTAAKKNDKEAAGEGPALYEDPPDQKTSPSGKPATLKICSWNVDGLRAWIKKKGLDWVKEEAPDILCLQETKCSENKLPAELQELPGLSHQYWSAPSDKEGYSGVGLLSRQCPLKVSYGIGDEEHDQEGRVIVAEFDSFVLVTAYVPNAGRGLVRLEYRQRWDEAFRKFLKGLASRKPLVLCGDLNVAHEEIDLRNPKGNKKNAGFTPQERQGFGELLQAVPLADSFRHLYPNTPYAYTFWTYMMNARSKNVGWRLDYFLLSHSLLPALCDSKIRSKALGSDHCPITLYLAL

With `O=C(Nc1ccc(Cl)cc1)C(=S)NN1C(=O)C(=Cc2ccc([N+](=O)[O-])o2)SC1=S` [Compound 13, N-(4-chlorophenyl)-2-{5-[(5-nitro-2-furyl)methylene]-4-oxo-2-thioxo-1,3-thiazolidin-3-yl}amino-2-thioxoacetamide], the IC50 came out at 93 µM.
Take `COc1ccc(NC(=O)C(=S)NN2C(=O)C(=Cc3ccc([N+](=O)[O-])o3)SC2=S)cc1` [Compound 17, N-(4-methoxyphenyl)-2-{5-[(5-nitro-2-furyl)methylene]-4-oxo-2-thioxo-1,3-thiazolidin-3-yl}amino-2-thioxoacetamide]: the concentration for half-maximal inhibition (IC50) was greater than 100 µM.

(Values after article PMC6264390, “Design, Synthesis and Structure-activity Studies of Rhodanine Derivatives as HIV-1 Integrase Inhibitors” (Molecules, 2010).)
